From PubChem BioAssay (NCI)
Values joined by “and” are separate entries in the source; they are usually repeats but may differ in a detail not shown here. Identical values can stand only once.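 96-well plates; 48 h exposure; 5 concentrations. Endpoints by linear interpolation between flanking doses. Not reached: highest tested concentration assigned. GI50 = concentration required for 50% inhibition of growth. TGI: total growth inhibition.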

Tests used:
Assay in all cases: growth of human tumour cells (NCI), 48 h
IGROV1 ovarian = tested on: IGROV1 ovarian
SK-OV-3 ovarian = tested on: SK-OV-3 ovarian
MDA-MB-435 = tested on: MDA-MB-435
OVCAR-3 ovarian = tested on: OVCAR-3 ovarian
MCF7 breast = tested on: MCF7 breast
DU-145 prostate = tested on: DU-145 prostate
SF-268 CNS = tested on: SF-268 CNS
TK-10 renal = tested on: TK-10 renal
NCI-H226 lung = tested on: NCI-H226 lung
SNB-19 CNS = tested on: SNB-19 CNS

Compound | GI50 (IGROV1 ovarian) | TGI (IGROV1 ovarian) | GI50 (SK-OV-3 ovarian) | TGI (SK-OV-3 ovarian) | GI50 (MDA-MB-435) | TGI (MDA-MB-435) | GI50 (OVCAR-3 ovarian) | TGI (OVCAR-3 ovarian) | GI50 (MCF7 breast) | TGI (MCF7 breast) | GI50 (DU-145 prostate) | TGI (DU-145 prostate) | GI50 (SF-268 CNS) | TGI (SF-268 CNS) | GI50 (TK-10 renal) | TGI (TK-10 renal) | GI50 (NCI-H226 lung) | TGI (NCI-H226 lung) | GI50 (SNB-19 CNS) | TGI (SNB-19 CNS)
COc1ccc(/C=C2\CN(Cc3cn(CCCNc4ccnc5cc(Cl)ccc45)nn3)C/C(=C\c3ccc(OC)cc3)C2=O)cc1 | 4.86 µM | 17.6 µM | 14.1 µM | 30.6 µM | 1.6 µM | 3.02 µM | 4.91 µM | 18.1 µM | 2.01 µM | 10.1 µM | 1.81 µM | 3.3 µM | 3.45 µM | 16.9 µM | 16.5 µM | 30.1 µM | 25.5 µM | > 100 µM | 15.7 µM | 36.1 µM
C=CC(=O)N1CC[C@@H](Oc2nc(Nc3ccc(N4CCC(N5CCN(C)CC5)CC4)cc3)c(C(N)=O)nc2CC)C1 | > 100 µM | > 100 µM | > 100 µM | > 100 µM | > 100 µM | > 100 µM | > 100 µM | > 100 µM | > 100 µM | > 100 µM | > 100 µM | > 100 µM | > 100 µM | > 100 µM | > 100 µM | > 100 µM | > 100 µM | > 100 µM | > 100 µM | > 100 µM
COc1ccc(/C(C)=C(\c2ccc(Cl)cc2)c2ccc(OCCN3CCCCC3)cc2)cc1F | 3.16 µM | 9.37 µM | 5.92 µM | > 16.7 µM | 2.71 µM | 5.37 µM | 3.25 µM | 6.65 µM | 3.34 µM | 8.24 µM | 4.64 µM | 15 µM | 5.96 µM | > 16.7 µM | 3.49 µM | 9.12 µM | 4.35 µM | > 16.7 µM | 5.37 µM | > 16.7 µM
COc1c(C)cnc(Cn2cnc3c(Cl)nc(N)nc32)c1C | 0.455 µM | > 100 µM | 0.23 µM | > 70.6 µM | 0.179 µM | 40.1 µM | 0.658 µM | > 100 µM | 0.0402 µM | > 100 µM | 0.0701 µM | > 100 µM | 0.708 µM | > 100 µM | 0.0884 µM | > 100 µM | 0.594 µM | > 100 µM | 0.48 µM | > 100 µM
COc1cc2c(c(OC)c1OC)-c1c(c3ccc([N+](=O)[O-])cc3c(=O)n1CCCN=[N+]=[N-])C2=O | 0.949 µM | 33.3 µM | 23.1 µM | 55.2 µM | > 100 µM | > 100 µM | 45.2 µM | > 100 µM | 1.37 µM | > 100 µM | 71.3 µM | > 100 µM | 14.4 µM | 80.7 µM | 13.1 µM | 33.1 µM | 28.4 µM | 71.8 µM | 29.7 µM | 98.3 µM
COc1ccc(C(=O)CC(Cl)=C(Cl)Cl)cc1 | 28.3 µM | 75.9 µM | > 100 µM | > 100 µM | 24.8 µM | 62.7 µM | 20.6 µM | 41.2 µM | 53.4 µM | > 100 µM | 31.5 µM | > 100 µM | 38.2 µM | > 100 µM | 23.9 µM | 59.9 µM | 34.1 µM | 85.7 µM | 32.4 µM | > 100 µM
O=C1C2=C(Nc3cc([N+](=O)[O-])ccc3N2)OC1c1c[nH]c2ccc(COc3ccccc3)cc12 (stereo not given) | – | > 100 µM | – | > 100 µM | – | > 100 µM | – | > 100 µM | – | > 100 µM | – | > 100 µM | – | > 100 µM | – | > 100 µM | – | > 100 µM | – | > 100 µM
CC(CCC/C=C/CCCN(C)C(=N)N)CC(C)C1OC(=O)C(C)C(O)/C=C/C(C)C(O)C(C)C(O)C(C)C(O)CCCC(O)CC2(O)OC(CC(OC(=O)CC(=O)O)CC(O)CC(O)C(C)C(O)/C=C/C=C/C1C)CC(O)C2O (stereo not given) | 2.51 µM and 3.12 µg/mL | 5.01 µM and 12.4 µg/mL | 3 µM and 9.08 µg/mL | 11.7 µM and 18.5 µg/mL | 1.9 µM and 2.45 µg/mL | 4.39 µM and 9.24 µg/mL | 1.92 µM and 5.68 µg/mL | 3.42 µM and 15.1 µg/mL | 1.79 µM and 3.53 µg/mL | 3.67 µM and 14 µg/mL | 2.22 µM and 6.85 µg/mL | 4.71 µM and 16 µg/mL | 2.76 µM and 6.7 µg/mL | 7.24 µM and 16.5 µg/mL | 1.98 µM and 10.3 µg/mL | 4.17 µM and 21.4 µg/mL | 6.21 µM and 14.1 µg/mL | 24.2 µM and 26.9 µg/mL | 4.9 µM and 10.1 µg/mL | 17 µM and 21.8 µg/mL
Cc1nc2cc(NC(=O)CN3CCN(CCN4C(=O)c5cccc6cccc(c56)C4=O)CC3)ccc2s1 | 6.05 µM | > 100 µM | 7.65 µM | > 100 µM | 4.6 µM | 19.4 µM | 7.91 µM | 20.7 µM | 4.08 µM | 15.5 µM | 5.21 µM | 17.1 µM | 5.01 µM | 24.9 µM | 7.91 µM | 21.7 µM | 4.67 µM | 73.9 µM | 6.23 µM | 21.4 µM
